Assay type in all cases: cell-based
In assay [1] the test system is Pseudomonas aeruginosa strains. Put plainly: Susceptibility (MIC, CLSI category) of P. aeruginosa clinical isolates. For clinical category (CLSI breakpoint): key: S, susceptible; R, resistant; I, intermediate.
Assay [2] relates to Acinetobacter baumannii isogenic strains. Put plainly: microbe, parasite or virus in culture. Particulars: for MIC: Acinetobacter baumannii.
Assay [3] has as its system Klebsiella pneumoniae strains. The assay can be described thus: Antibiotic susceptibility (CLSI category) of K. pneumoniae clinical isolates. For Antibiotic susceptibility and clinical category (CLSI breakpoint): key: S, susceptible; R, resistant; I, intermediate.
The test system of another assay is P. aeruginosa. Put plainly: MIC by broth microdilution (Table 4), P. aeruginosa. The method, then: (§1) The minimum inhibitory concentration (MIC) values were determined by broth microdilution method according to “Methods for Dilution Antimicrobial Susceptibility Tests for Bacteria That Grow Aerobically: Approved Standard M7-A7. CLSI, Wayne, Pa., USA, 2006” Colistin and amikacin free drugs were evaluated to compare the efficacy of nanoparticles. MIC was evaluated in Pa46, Pa1016, Kp1, Kp4, Abl4, Ab4256, MRSA 15, MRSA 16, SE14 an SE94 strains. ATCC P. aeruginosa 27853, ATCC E. coli 25922 and ATCC A. baumannii 19606 were used as quality control.
On the technique in general: In broth dilution the organism is exposed to a series of concentrations in liquid medium.

The test system of the next assay is K. pneumoniea. Put plainly: MIC by broth microdilution (Table 4), K. pneumoniae. The method, then: as §1
The subject of another assay is A. baumannii. Put plainly: MIC by broth microdilution (Table 4), A. baumannii. The method, then: as §1
For assay [4], the system named is methicillin-resistant S. aureus. The assay can be described thus: MIC by broth microdilution (Table 4), MRSA. Particulars: strain MRSA15. The method, then:
as §1

The next assay relates to S. epidermidis. The assay can be described thus: MIC by broth microdilution (Table 4), S. epidermidis. The method, then:
as §1

The mark [5] stands for this setting: Pseudomonas aeruginosa, strain Pa46 (ST111, XDR, VIM-2), read-out: MIC.
[6] abbreviates: Pseudomonas aeruginosa, strain Pa54 (ST111, XDR, VIM-2), read-out: MIC.
The mark [7] stands for this setting: Pseudomonas aeruginosa, strain Pa1016 (ST175, XDR), read-out: MIC.
The mark [8] stands for this setting: read-out: MIC values, strain Abl1 (ST103).
The mark [9] stands for this setting: read-out: MIC values, strain Abl4 (ST2).
[10] abbreviates: read-out: MIC values, strain Abl4256 (ST38).
The mark [11] stands for this setting: strain Kp1 (XDR, CTX-M, OXA-48).

≈ marks a conversion by molar mass, not a printed value. Where two headings read alike, the source gives them in different places.

For `C[C@H]1COc2c(N3CCN(C)CC3)c(F)cc3c(=O)c(C(=O)O)cn1c23` [LVX, levofloxacin], the MIC was 32 µg/mL (≈ 88.6 µM) in assay [1] (setting [5]); 32 µg/mL (≈ 88.6 µM) in assay [1] (setting [6]); 128 µg/mL (≈ 354 µM) in assay [1] (setting [7]); 4 µg/mL (≈ 11.1 µM) in assay [2] (setting [8]); 4 µg/mL (≈ 11.1 µM) in assay [2] (setting [9]); at most 1 µg/mL in assay [2] (setting [10]). For the same compound, the “clinical category (CLSI breakpoint)” value in assay [1] (strain Pa46), in assay [1] (strain Pa54) and in assay [1] (strain Pa1016) was “R” each time.

`C[C@@H](O)[C@H]1C(=O)N2C(C(=O)O)=C(S[C@@H]3CN[C@H](C(=O)N(C)C)C3)[C@H](C)[C@H]12` [MEM, meropenem]: the “Antibiotic susceptibility and clinical category (CLSI breakpoint)” value in assay [3] (setting [11]) is given as “R”; in assay [3] (strain Kp2 (XDR, CTX-M, NDM)), “R”; in assay [3] (strain Kp3 (XDR, KPC)) it was “R”; in assay [3] (strain Kp4 (XDR, AmpC)) it was “R”. The MIC in assay [2] (setting [8]) is at least 16 µg/mL; in assay [2] (setting [9]) it was at least 16 µg/mL; in assay [2] (setting [10]), over 16 µg/mL.

Regarding `CCN1CCN(C(=O)N[C@@H](C(=O)N[C@@H]2C(=O)N3[C@@H]2SC(C)(C)[C@@H]3C(=O)O)c2ccccc2)C(=O)C1=O` [PIP], the MIC values result in assay [2] (strain Abl1 (ST103)) is “>=128 mg/L”; in assay [2] (strain Abl4 (ST2)) it was “>=128 mg/L”; in assay [2] (strain Abl4256 (ST38)) it was over 64 µg/mL.

Turning to `CN(C)c1cc(NC(=O)CNC(C)(C)C)c(O)c2c1C[C@H]1C[C@H]3[C@H](N(C)C)C(O)=C(C(N)=O)C(=O)[C@@]3(O)C(O)=C1C2=O` [TIG, tigecycline], the MIC worked out at 2 µg/mL (≈ 3.41 µM) in assay [2] (setting [8]), 4 µg/mL (≈ 6.83 µM) in assay [2] (setting [9]) and 0.5 µg/mL (≈ 0.854 µM) in assay [2] (setting [10]). Also, the “susceptibility” value in assay [2] (strain AbII (ST103)) and in assay [2] (strain Abl4 (ST2)) was “susceptible” throughout.

Consider `NC[C@H]1O[C@H](O[C@H]2[C@H](O)[C@@H](O[C@H]3O[C@H](CO)[C@@H](O)[C@H](N)[C@H]3O)[C@H](N)C[C@@H]2N)[C@H](N)C[C@@H]1O` [TOB, tobramycin], for which the MIC is 64 µg/mL (≈ 137 µM) in assay [1] (setting [5]), 128 µg/mL (≈ 274 µM) in assay [1] (setting [6]) and 16 µg/mL (≈ 34.2 µM) in assay [1] (setting [7]). The “clinical category (CLSI breakpoint)” value in assay [1] (strain Pa46), in assay [1] (strain Pa54) and in assay [1] (strain Pa1016) was “R” throughout.

colistin: the “clinical category (CLSI breakpoint)” value in assay [1] (strain Pa46), in assay [1] (strain Pa54) and in assay [1] (strain Pa1016) was “S” throughout. The “susceptibility” value in assay [1] (strain Pa46), in assay [1] (strain Pa54), in assay [1] (strain Pa1016), in assay [3] (strain Kp1), in assay [3] (strain Kp2) and in assay [3] (strain Kp3) was “susceptible” throughout. Further, the “susceptibility” value in assay [3] (strain Kp4), in assay [2] (strain AbII (ST103)) and in assay [2] (strain Abl4 (ST2)) was “susceptible” throughout. Further, the MIC is 0.5 µg/mL in assay [1] (strain Pa46 (ST111, XDR, VIM-2)); 0.5 µg/mL in assay [1] (strain Pa54 (ST111, XDR, VIM-2)); 1 µg/mL in assay [1] (strain Pa1016 (ST175, XDR)); 0.5 to 1 µg/mL against P. aeruginosa (strain Pa46); 0.5 to 1 µg/mL in the assay with P. aeruginosa (strain Pa1016); 1 µg/mL against K. pneumoniea (strain Kp1). Also, the MIC was 0.125 to 0.25 µg/mL in the assay with K. pneumoniea (strain Kp4); 0.25 µg/mL in the assay with A. baumannii (strain Ab4256); 1 µg/mL in the assay with A. baumannii (strain Abl4); over 128 µg/mL in assay [4]; 32 to 64 µg/mL in the assay with S. epidermidis (strain SE14); 32 µg/mL against S. epidermidis (strain SE94). Also, the “Antibiotic susceptibility and clinical category (CLSI breakpoint)” value in assay [3] (setting [11]) is reported as “S”; in assay [3] (strain Kp2 (XDR, CTX-M, NDM)), “S”; in assay [3] (strain Kp3 (XDR, KPC)) it was “S”; in assay [3] (strain Kp4 (XDR, AmpC)), “S”. For the same compound, the MIC values entry is “<=0.5 mg/L” in assay [2] (strain Abl1 (ST103)), “<=0.5 mg/L” in assay [2] (strain Abl4 (ST2)) and 0.25 µg/mL in assay [2] (strain Abl4256 (ST38)).

For gentamicin, the “Antibiotic susceptibility and clinical category (CLSI breakpoint)” value in assay [3] (setting [11]) is listed as “R”; in assay [3] (strain Kp2 (XDR, CTX-M, NDM)) it was “R”; in assay [3] (strain Kp3 (XDR, KPC)), “S”; in assay [3] (strain Kp4 (XDR, AmpC)), “R”. The “susceptibility” value in assay [3] (strain Kp3) is listed as “susceptible”. For the same compound, the MIC values entry is “>=16 mg/L” in assay [2] (strain Abl1 (ST103)), 4 µg/mL in assay [2] (strain Abl4 (ST2)) and over 8 µg/mL in assay [2] (strain Abl4256 (ST38)).

Source of the values: patent US10894085B2, “System for thermotherapy treatment or prevention of antimicrobial resistant or biofilm infections” (FUNDACIÓ HOSPITAL UNIVERSITARI VALL D'HEBRON—INSTITUT DE …, priority 2016, dated 2021).
